Here are results for five substances from article PMC5309247, “A Role of Corazonin Receptor in Larval-Pupal Transition and Pupariation in the Oriental Fruit Fly Bactrocera dorsalis (Hendel) (Diptera: Tephritidae)” (Frontiers in Physiology, 2017).

The subject of one test is DmCrzR. Particulars: ref Cazzamali et al., [2002], Park et al., [2002b], cited from earlier work. An excerpt:
(§1) The CrzR is a member of the GPCR family having seven TM domains. Since the first CrzR was identified in Drosophila, homologous receptors have been predicted in several genome databases (Sha et al., [2012]).

The subject of the next test is Schistocerca americana. Particulars: ref Veenstra, [1991]; cited from earlier work. An excerpt: (§2) Neuropeptides play a central role in regulating numerous vital physiological systems and behavioral events in diverse insects. The multiple functions of insect neuropeptides make them a prime practical potential target in the development of novel insect control agents (Boonen et al., [2009]).

Test [1] relates to head-ligated B. dorsalis larvae. In words: Rescue of larval-pupal transition by peptide injection in head-ligated larvae. Particulars: 0.3 pmol in 300 nL, 24 h post-injection; for rescue of pupariation in head-ligated larvae: in words. The class given is in vivo, Bactrocera dorsalis. The protocol:
The peptides of Crz and ETH of B. dorsalis were synthesized by Genescript (Nanjing, China), and the adipokinetic hormone (AKH) peptide of Bombyx mori (BmAKH) was a gift from Dr. Naiming Zhou (Zhejing University, China; Yang et al., [2013]). The amino acid (aa) sequences for Crz, ETH and AKH were added in Table 1. Plasmids were prepared using the MIDIprep kit as purchased from Qiagen (Valencia, CA). The reagents for cell culture and GPCR assay were purchased from Gibco cell culture at Life Technologies (Grand Island, NY), including fetal bovine serum, DMEM/F12 medium, fungizone, penicillin/streptomycin, and coelenterazine. The transfection reagent (TransIt) was purchased from Mirus Bio (Madison, WI).
The experimental setup with head-ligated 2-day-old 3rd-instar larvae was based on a previous study (Kim et al., [2004]). […] Upon head-ligation, a series of larvae was injected with Crz (0.3 pmol in 300 nL) or ETH (0.3 pmol in 300 nL). Upon injection larvae were kept on an artificial diet as described above, and we scored pupal development at 24 h post-injection. Per treatment, we used 20 larvae and three biological replicates were conducted. Typical phenotype effects were captured with a Leica M205A stereomicroscope with a camera (Leica Microsystems, Wetzlar, Germany).

For another test, the system named is BdCrzR. In words: Ca2+ mobilization luminescence (aequorin) assay in BdCrzR-expressing CHO cells. The class given is cell-based, Bactrocera dorsalis. Particulars: for Ca2+ response of BdCrzR-expressing CHO cells: CHO cells with aequorin and Gα16, 10-fold serial dilution of peptide. The protocol: The ORF for BdCrzR was inserted into the expression vector pcDNA3.1 (+). The correct clone of pcDNA3.1-BdCrzR was confirmed by sequencing (Invitrogen). Chinese Hamster Ovary (CHO) cells, supplemented with aequorin, and Gα16 subunit, were employed for the heterologous expression. The methods for the transfection and the Ca^2+ mobilization assay were performed as previously described (Jiang et al., [2014]). Briefly, cells were transfected with the pcDNA3.1(+)-BdCrzR using TransIT-LT1 transfection reagent (Mirus Bio). At 30 h after the transfection, the cells were collected and incubated with the coelenterazine (Invitrogen) for 2.5 h prior to the functional assay. The cells transfected with the empty pcDNA3.1 vector, were used as a negative control.
The luminescence assay was performed by measuring the intracellular Ca^2+ mobilization of the transfected CHO cells. A 10-fold serial dilution of the peptides (BdCrz and BmAKH) was applied to the cells. The luminescence caused by the intracellular calcium mobilization was measured within 20 s in every half-second intervals by a TriStar^2 LB 942 Multimode Reader (Berthold Technologies, Bad Wildbad, Germany; Jiang et al., [2013], [2014]). The lowest concentration of BdCrz ligand showing the maximum activation of the receptor, was selected for luminescence normalization. Based on that, a concentration-response curve was calculated for BdCrz by logistic fitting in Origin 8.6 (OriginLab Corporation, Northampton, MA). All experiments were conducted with three biological replicates.

In another test the test system is MsCrzR. Particulars: ref Kim et al., [2004], cited from earlier work.
Excerpt: as §1

The test system of a further test is Bombyx mori larvae. Particulars: injection into larvae; ref Tanaka et al., [2002]; cited from earlier work. An excerpt:
Crz is highly conserved with respect to spatial expression pattern, but no clear pattern of function has emerged.

The test system of the next test is Periplaneta americana. Particulars: ref Veenstra, [1989]; cited from earlier work.
Excerpt: as §2

Where two headings read alike, the source gives them in different places.

For the substance “DmCrz: Corazonin of Drosophila melanogaster (NP_524350.1) (QTFQYSRGWTN; Corazonin; UniProt Q26377 20-30, looked up)”, the concentration giving a half-maximal response (EC50) – broadly, the midpoint of the concentration-response curve – in the test with DmCrzR (DmCrzR-transfected CHO cells) is 18 nM; in the test on DmCrzR (Xenopus oocyte cells), 1 nM.
For the substance “pGln-Thr-Phe-Gln-Tyr-Ser-His-Gly-Trp-Thr-Asn-NH2 [[His^7]-Crz]”, in the test with Schistocerca americana, the dark-inducing activity entry was “dark-inducing peptide”.
“pGln-Thr-Phe-Gln-Tyr-Ser-His-Gly-Trp-Thr-Ser-NH2 [BdCrz, mature corazonin of Bactrocera dorsalis, …amide, synthesized by Genescript]”: in test [1] (20 larvae per treatment, three biological replicates), the “head-ligated larvae that made the transition from the larval to the pupal stage” value was determined as 97%. Moreover, the “rescue of pupariation in head-ligated larvae” value in test [1] was “could rescue the effects”. For the same substance, the EC50 is 52.5 nM in the test with BdCrzR (CHO cells with aequorin and Gα16, transiently expressing BdCrzR, Ca2+ luminescence within 20 s, logistic fit, three independent measurements, each three replicates); 0.2 nM with MsCrzR (CHO); 0.075 nM in the test on MsCrzR (Xenopus oocyte-expression system). Also, in the test with BdCrzR, the “Ca2+ response of BdCrzR-expressing CHO cells” value is reported as “concentration-dependent Ca^2+ responses”. The pupal development result with Bombyx mori larvae was “prolonged pupal development”. The silk spinning rate entry in the test with Bombyx mori larvae was “reduced the silk spinning rate”. For the same substance, the cardioacceleratory activity result in the test on Periplaneta americana is listed as “cardioacceleratory peptide”.
As to “pCys-Glu-Leu-Thr-Phe-Ser-Pro-Asp-Thr-NH2 [BmAKH, adipokinetic hormone (AKH) peptide of Bombyx mori, reference compound]”, the “Ca2+ response of BdCrzR-expressing CHO cells” value with BdCrzR was “no responses”; with BdCrzR (listed as AKH), “did not respond”.
Turning to “pAsn-Glu-Ser-Pro-Gly-Phe-Phe-Leu-Lys-Ile-Thr-Lys-Asn-Val-Pro-Arg-Leu-NH2 [BdETH, ecdysis-triggering hormone (ETH) of B. dorsalis, synthesized by Genescript, reference compound]”, the “rescue of pupariation in head-ligated larvae” value in test [1] was “the same result was also observed”.
